Assay results from patent US9738600B2, “ROR gamma (RORγ) modulators” (LEAD PHARMA CEL MODELS IP B.V., priority 2013, dated 2017).

Biological target: T1, RORγ (Homo sapiens, UniProt P51449)
T1 sequence (P51449 269-508 limits assumed): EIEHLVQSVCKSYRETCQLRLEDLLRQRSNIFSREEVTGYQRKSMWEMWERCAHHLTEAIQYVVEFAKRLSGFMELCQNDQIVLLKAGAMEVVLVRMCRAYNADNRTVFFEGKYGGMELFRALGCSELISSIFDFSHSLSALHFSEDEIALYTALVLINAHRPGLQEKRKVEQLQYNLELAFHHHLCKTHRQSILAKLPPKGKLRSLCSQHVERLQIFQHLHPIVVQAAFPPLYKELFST
Assay: RORγ GAL4 reporter gene assay
Details: mean pIC50, inhibition of RORγ (GAL4-RORγ-LBD) in 293FT cells, luciferase readout, overnight incubation
Text: The RORγ ligand-binding domain (LBD) was fused to the yeast GAL4 DNA binding domain (DBD) and placed under the control of the human cytomegalovirus (CMV) immediate early promoter, using expression vector pFN26A (Promega) and standard recombinant DNA cloning methods.
To monitor the inhibitory effect of compounds on RORγ, a transcriptional reporter construct was used. The pGL4.35 vector (Promega) contains nine copies of the GAL4 Upstream Activator Sequence (UAS). This sequence drives the transcription of the luciferase reporter gene luc2P in response to binding of a fusion protein containing the GAL4 DNA binding domain, as for example expressed by the GAL4-RORγ-LBD and GAL4-VP16 expression vectors described above.
The day after transfection, cells were plated into 96 well plates, test compound was added and the plates were incubated overnight. Subsequently, the firefly luciferase activity was quantified using luciferase detection reagent and luminescence readout.
1500 μL of this reagent mixture was added to 5 μg of GAL4 fusion protein expression vector and 5 μg of the transcriptional reporter construct, and incubated at RT for 20 minutes.
Subsequently, the cells were washed with Phosphate Buffered Saline (PBS) (Lonza), after which the PBS was removed. To dissociate the cells, 1 ml of TrypLE Express (Invitrogen) was added to the flask, followed by incubation at RT until the cells visually started to detach. Cells were collected in 5 mL of assay medium (DMEM culture medium (Lonza), 10% dialyzed FBS (Invitrogen) and Pen/Strep (Lonza)) to achieve a single cell suspension. 10×10^6 cells were spun down and re-suspended in 10 mL of assay medium. Subsequently, the cell suspension was added to the transfection mix tube, and then transferred as a whole to a T75 flask (Greiner), followed by overnight (16-24 hours) incubation at 37° C. and 5% CO2.
For compound screening, the cells were harvested (as described above) and counted. […] 80 μL of cell suspension (60,000 cells) was plated per well into a white, flat bottom, tissue culture treated, 96 well screening plates (Greiner).
Test compounds were diluted, starting from a 10 mM dimethylsulfoxide (DMSO) stock solution, to serial dilutions in DMSO at 500× the final test concentration. Subsequently, these solutions were diluted to 5× the final test concentration in two 10-fold-dilution steps in assay medium. The final DMSO concentration of the 5× test compound solution was 1%. 20 μL of the 5× test compound solution was added to each test well of the 96 well plate previously plated with 80 μl cell suspension, resulting in the final test concentration with 0.2% DMSO.
The plates were incubated overnight (16-24 hours) at 37° C. and 5% CO2.
For the luciferase readout, the luciferase reagent (Britelite Plus, Perkin Elmer) was brought to RT. […] The luciferase luminescence signal was measured using a Wallac Victor Microplate Reader (Perkin Elmer).
The half maximum inhibitory concentration (IC50) values for the test compounds were calculated from the luciferase signal using GraphPad Prism software (GraphPad Software).

Structure (SMILES)	IC50 [nM]
CCOC(c1ccc(NC(=O)Cc2ccc(S(=O)(=O)CC3CC3)cc2)cc1)(C(F)(F)F)C(F)(F)F [Example 53, 2-(4-((cyclopropylmethyl)sulfonyl)phenyl)-N-(4-(2-ethoxy-1,1,1,3,3,3-hexafluoropropan-2-yl)phenyl)acetamide]	≤ 100
CNS(=O)(=O)c1ccc(CC(=O)Nc2ccc(C(O)(C(F)(F)F)C(F)(F)F)cc2)cc1 [Example 6, N-(4-(1,1,1,3,3,3-hexafluoro-2-hydroxypropan-2-yl)phenyl)-2-(4-(N-methylsulfamoyl)phenyl)acetamide]	≤ 1000
CCS(=O)(=O)c1ccc(CC(=O)Nc2ccc(C(O)(C(F)(F)F)C(F)(F)F)c(C)c2)cc1 [Example 29, 2-(4-(ethylsulfonyl)phenyl)-N-(4-(1,1,1,3,3,3-hexafluoro-2-hydroxypropan-2-yl)-3-methylphenyl)acetamide]	≤ 100
O=C(Cc1cccc(S(=O)(=O)NC2CC2)c1)Nc1ccc(C(O)(C(F)(F)F)C(F)(F)F)cc1F [Example 40, 2-(3-(N-cyclopropylsulfamoyl)phenyl)-N-(2-fluoro-4-(1,1,1,3,3,3-hexafluoro-2-hydroxypropan-2-yl)phenyl)acetamide]	≤ 1000
CCCCC(O)(c1ccc(NC(=O)Cc2ccc(S(=O)(=O)CC3CC3)cc2)cc1)C(F)(F)F (stereo not drawn) [Example 64, 2-(4-((cyclopropylmethyl)sulfonyl)phenyl)-N-(4-(1,1,1-trifluoro-2-hydroxyhexan-2-yl)phenyl)acetamide]	≤ 10
O=C(Cc1ccc(S(=O)(=O)CC2CC2)cc1)Nc1ccc(C(OCc2ccccc2)(C(F)(F)F)C(F)(F)F)cc1 [Example 59, N-(4-(2-(benzyloxy)-1,1,1,3,3,3-hexafluoropropan-2-yl)phenyl)-2-(4-((cyclopropylmethyl)sulfonyl)phenyl)acetamide]	≤ 100
CCS(=O)(=O)c1ccc(CC(=O)Nc2ccc(C(O)(CC(C)C)C(F)(F)F)cc2)cc1 (stereo not drawn) [Example 66, 2-(4-(ethylsulfonyl)phenyl)-N-(4-(1,1,1-trifluoro-2-hydroxy-4-methylpentan-2-yl)phenyl)acetamide]	≤ 100
CCS(=O)(=O)c1ccc(CC(=O)Nc2cc(Cl)c(C(O)(C(F)(F)F)C(F)(F)F)cc2OC)cc1 [Example 22, N-(5-chloro-4-(1,1,1,3,3,3-hexafluoro-2-hydroxypropan-2-yl)-2-methoxyphenyl)-2-(4-(ethylsulfonyl)phenyl)acetamide]	≤ 1000
CCS(=O)(=O)c1ccc(CC(=O)Nc2ccc(C(OCc3ccccc3)(C(F)(F)F)C(F)(F)F)cc2)cc1 [Example 50, N-(4-(2-(benzyloxy)-1,1,1,3,3,3-hexafluoropropan-2-yl)phenyl)-2-(4-(ethylsulfonyl)phenyl)acetamide]	≤ 1000
CCCOC(c1ccc(NC(=O)Cc2ccc(S(=O)(=O)CC)cc2)cc1)(C(F)(F)F)C(F)(F)F [Example 49, 2-(4-(ethylsulfonyl)phenyl)-N-(4-(1,1,1,3,3,3-hexafluoro-2-propoxypropan-2-yl)phenyl)acetamide]	≤ 100
CNS(=O)(=O)c1cccc(CC(=O)Nc2ccc(C(O)(C(F)(F)F)C(F)(F)F)cc2)c1 [Example 19, N-(4-(1,1,1,3,3,3-hexafluoro-2-hydroxypropan-2-yl)phenyl)-2-(3-(N-methylsulfamoyl)phenyl)acetamide]	≤ 1000
Cc1c(NC(=O)Cc2ccc(S(=O)(=O)NC3CC3)cc2)ccc(C(O)(C(F)(F)F)C(F)(F)F)c1F [Example 26, 2-(4-(N-cyclopropylsulfamoyl)phenyl)-N-(3-fluoro-4-(1,1,1,3,3,3-hexafluoro-2-hydroxypropan-2-yl)-2-methylphenyl)acetamide]	≤ 1000
CC(C)OC(c1ccc(NC(=O)Cc2ccc(S(=O)(=O)CC3CC3)cc2)cc1)(C(F)(F)F)C(F)(F)F [Example 51, 2-(4-((cyclopropylmethyl)sulfonyl)phenyl)-N-(4-(1,1,1,3,3,3-hexafluoro-2-isopropoxypropan-2-yl)phenyl)acetamide]	≤ 100
CCCCOC(c1ccc(NC(=O)Cc2ccc(S(=O)(=O)CC3CC3)cc2)cc1)(C(F)(F)F)C(F)(F)F [Example 52, N-(4-(2-butoxy-1,1,1,3,3,3-hexafluoropropan-2-yl)phenyl)-2-(4-((cyclopropylmethyl)sulfonyl)phenyl)acetamide]	≤ 100
CCCOC(c1ccc(NC(=O)Cc2ccc(S(=O)(=O)NC3CC3)cc2)cc1)(C(F)(F)F)C(F)(F)F [Example 61, 2-(4-(N-cyclopropylsulfamoyl)phenyl)-N-(4-(1,1,1,3,3,3-hexafluoro-2-propoxypropan-2-yl)phenyl)acetamide]	≤ 100

Continued, values first:

IC50 [nM]	Structure (SMILES)
≤ 10	O=C(Cc1ccc(S(=O)(=O)CC2CC2)cc1)Nc1ccc(C(O)(C2CCCC2)C(F)(F)F)cc1 (stereo not drawn) [Example 75, N-(4-(1-cyclopentyl-2,2,2-trifluoro-1-hydroxyethyl)phenyl)-2-(4-((cyclopropylmethyl)sulfonyl)phenyl)acetamide]
≤ 1000	O=C(Cc1ccc(S(=O)(=O)CC2CC2)cc1)Nc1ccc(C(O)C(F)(F)F)cc1 (stereo not drawn) [Example 70, 2-(4-((cyclopropylmethyl)sulfonyl)phenyl)-N-(4-(2,2,2-trifluoro-1-hydroxyethyl)phenyl)acetamide]
≤ 100	CC(O)(c1ccc(NC(=O)Cc2ccc(S(=O)(=O)CC3CC3)cc2)cc1)C(F)(F)F (stereo not drawn) [Example 71, 2-(4-((cyclopropylmethyl)sulfonyl)phenyl)-N-(4-(1,1,1-trifluoro-2-hydroxypropan-2-yl)phenyl)acetamide]
≤ 100	O=C(Nc1ccc(C(O)(C(F)(F)F)C(F)(F)F)cc1)C(O)c1ccc(S(=O)(=O)CC2CC2)cc1 (stereo not drawn) [Example 114, 2-(4-((cyclopropylmethyl)sulfonyl)phenyl)-N-(4-(1,1,1,3,3,3-hexafluoro-2-hydroxypropan-2-yl)phenyl)-2-hydroxyacetamide]
≤ 100	O=C(Cc1ccc(S(=O)(=O)CC2CC2)cc1)Nc1ccc(C(O)(C2CC2)C2CC2)cc1 [Example 106, 2-(4-((cyclopropylmethyl)sulfonyl)phenyl)-N-(4-(dicyclopropyl(hydroxy)methyl)phenyl)acetamide]
≤ 1000	O=C(Cc1ccc(S(=O)(=O)CC2CC2)cc1)Nc1ccc(C(O)(C(F)(F)F)C(F)(F)F)nc1 [Example 110, 2-(4-((cyclopropylmethyl)sulfonyl)phenyl)-N-(6-(1,1,1,3,3,3-hexafluoro-2-hydroxypropan-2-yl)pyridin-3-yl)acetamide]
≤ 100	O=C(Cc1ccc(S(=O)(=O)CC2CC2)cc1)Nc1ccc(C(O)(CC2CCCC2)C(F)(F)F)cc1 (stereo not drawn) [Example 68, N-(4-(3-cyclopentyl-1,1,1-trifluoro-2-hydroxypropan-2-yl)phenyl)-2-(4-((cyclopropylmethyl)sulfonyl)phenyl)acetamide]
≤ 100	O=C(Cc1ccc(S(=O)(=O)CC2CC2)cc1)Nc1ccc(C(O)(C2CC2)C(F)(F)F)cc1 (stereo not drawn) [Example 67, N-(4-(1-cyclopropyl-2,2,2-trifluoro-1-hydroxyethyl)phenyl)-2-(4-((cyclopropylmethyl)sulfonyl)phenyl)acetamide]
≤ 100	O=C(Cc1ccc(S(=O)(=O)CC2CC2)cc1)Nc1ccc(C(O)(c2ccccc2)C(F)(F)F)cc1 (stereo not drawn) [Example 88, 2-(4-((cyclopropylmethyl)sulfonyl)phenyl)-N-(4-(2,2,2-trifluoro-1-hydroxy-1-phenylethyl)phenyl)acetamide]
